Reference: patent publication US20120004405A1, “COMPOUNDS HAVING ACTIVITY IN CORRECTING MUTANT CFTR CELLULAR PROCESSING” (priority 2008, published 2012)
“Also recorded” adds a separate entry of the source.

Assays:
ΔF508-CFTR [1] = biological target: T1, ΔF508-CFTR (Homo sapiens, UniProt P13569, DEL508-508); experiment: Iodide efflux from ΔF508-CFTR epithelial cells; type: cell-based; conditions: for iodide efflux from ΔF508-CFTR epithelial cells: iodide-loaded cells, compound added at time point 0, iodide sensitive electrode
T1 construct: Human epithelial cells containing wildtype (A) or ΔF508-CFTR (B); endogenous in cells; host or cells: CFBE14o- human epithelial cells (provided by Dr. D. C. Gruenert)
Description: Iodide efflux experiments were performed as described. Briefly, Cells (80-90% confluent) were incubated for 1 h in a loading buffer containing 136 mM NaI, 3 mM KNO3, 2 mM Ca(NO3)2, 11 mM glucose, and 20 mM Hepes, adjusted to pH 7.4 with NaOH. To remove extracellular iodide, cells were thoroughly washed with efflux buffer (136 mM NaNO3 replacing 136 mM NaI in the loading buffer) and then equilibrated in 2.5 ml efflux buffer for 1 min. The efflux buffer was changed at 1 min intervals over the duration of the experiment. Four minutes after anion substitution, cells were exposed to compound 1D. The amount of iodide in each 2.5 ml sample of efflux buffer was determined using an iodide-selective electrode (HNU Systems Ltd, Warrington, UK). Cells were loaded and experiments performed at room temperature.

hyaluronan exporter MRP5 = biological target: T2, hyaluronan exporter MRP5 (Homo sapiens, UniProt O15440); experiment: Determination of hyaluronan export from human fibroblasts (ELISA of culture medium); type: cell-based; conditions: incubated two days with increasing concentrations; hyaluronan in culture supernatant
T2 construct: tested on human fibroblasts cultures for their influence on hyaluronan exporter MRP5; endogenous in cells; host or cells: human fibroblast cultures
Description: (§1) The cells were incubated for 24 hours at 37° C., the media were replaced with fresh media and after additional 24 hours aliquots (5 and 20 μl) of the culture medium were used for measurement of the hyaluronan concentration in the cell culture medium by an ELISA. The wells of a 96 well Covalink-NH-microtiter plate (NUNC) were coated with 100 μl of a mixture of […] of hyaluronan (Healon®), 9.2 μg/ml of N-Hydroxysuccin-imide-3-sulfonic acid and 615 μl/ml of 1-ethyl-3-(3-dimethylaminopropyl)-carbodiimide for 2 hours at room temperature and overnight at 4° C. The wells were washed three times with 2 M NaCl, 41 mM MgSO4, 0.05% Tween-20 in 50 mM phosphate buffered saline pH 7.2 (buffer A) and once with 2 M NaCl, 41 mM MgSO4, in phosphate buffered saline pH 7.2. Additional binding sites were blocked by incubation with 300 μl of 0.5% bovine serum albumin in phosphate buffered saline for 30 min at 37° C. Calibration of the assay was performed with standard concentrations of hyaluronan ranging from 15 ng/ml to 6000 ng/ml in equal volumes of culture medium as used for measurement of the cellular supernatants. […] The adsorption was read at 490 nm. The concentrations in the samples were calculated from a logarithmic regression curve of the hyaluronan standard solutions.

[2] = system: wildtype HBE14o- cells (normal CFTR); experiment: Transepithelial resistance of wildtype HBE14o- epithelial cells; type: cell-based, human
ΔF508-CFTR [3] = biological target: T1, ΔF508-CFTR; experiment: Western blotting of cell surface expressed CFTR, ΔF508-CFTR epithelial cells; type: cell-based
Description: (§2) Human epithelial cells containing wildtype CFTR (16HBE14o-) and the mutant cell line CFBE14o- were kindly provided by Dr. D. C. Gruenert. They were grown in suspension culture in Dulbeccós medium supplemented with streptomycin/penicillin (100 units of each/ml) and 10% foetal calf serum.
(§3) The cell pellets were solubilized by vortexing in buffer (Tris-HCl 0.06 M; 2% SDS, 10% glycerol, 0.1M dithiothreitol, 0.1% bromophenol-blue and the protease inhibitor cocktail, pH 6.8). Following centrifugation (2 min, 8.000 g) samples of the supernatant were separated on 10% poly-acrylamide slabgels. Proteins were subsequently electroblotted onto nitrocellulose paper in 0.025 M Tris, 0.192 M glycine, 20% methanol. The blots were incubated at 4° C. with 0.02M Tris-HCl, 0.15M NaCl, 0.1% Tween20, pH7.5 followed by overnight incubation at 4° C. with a 1:500 dilution of primary anti-CFTR antibody in 0.02M Tris-HCl, 0.15M NaCl, 0.1% Tween20, pH7.5. Blots were washed three times, incubated with peroxidase-conjugated anti-rabbit IgG for 2 h, and washed four times. Peroxidase activity was detected with […] reagent (ECL kit; Amersham, Braunschweig, Germany) on X-ray film.

[4] = Alamarblue cytotoxicity assay; type: cell-based; conditions: up to concentrations of 400 μM; data not shown
Description: In a preferred embodiment, the present invention relates to compounds 1B, 1C, 1D 1F and 1G. […] Compound 1D is particularly preferred.
The cytotoxicity of the drugs was measured as described.

[5] = system: mutant CFBE14o- cells (ΔF508-CFTR); experiment: Transepithelial resistance of mutant CFBE14o- epithelial cells; type: cell-based, human
Description: as §2
A cell monolayer on a thin filter membrane (growth area, 4.2 cm2; pore diameter, 0.4 μm; thickness, 20 μm; Falcon, Heidelberg, Germany) served as a test barrier for the invasive capabilities of malignant cells. When confluent, these cells from a tight epithelial sheet with a high trans-epithelial electrical resistance (TEER), which was measured continuously using a STX-2 electrode (WPI, Sarasota, USA). Permeabilization of the epithelial cell layer (MDCK-C7 cells) due to the invasive activity of the melanoma cells can be determined by trans-epithelial electrical resistance (TEER) measurements, as previously reported [24;25].

wildtype CFTR = biological target: T3, wildtype CFTR (Homo sapiens, UniProt P13569); experiment: Western blotting of cell surface expressed CFTR, wildtype epithelial cells; type: cell-based; conditions: increasing concentration of compound
T3 construct: Human epithelial cells containing wildtype CFTR (16HBE14o-); endogenous in cells; host or cells: 16HBE14o- human epithelial cells (provided by Dr. D. C. Gruenert)
Description: as §2, §3

nasal epithelium = experiment: Transepithelial nasal resistance measured on the inventor; type: in vivo; conditions: human
Description: The effect of compound 1D was evaluated on the inventor of the present application by measurement of the transepithelial nasal resistance. This is a standard protocol for testing pharmaceutically active compounds on humans, (http://central.igc.gulbenkian.pt/cftr/vr/e/schuler_basic_protocol_for_measurement_of_transepithelial_nasal_potential_difference.pdf) (see also the results of FIG. 9).
The nasal epithelium was equilibrated with isotonic (0.9%) NaCl, 2 mM CaCl2. […] To determine the maximal possible potential differences in this experiment, the solution was changed to isotonic NaCl, 2 mM CaCl2 containing 10 μM amiloride that is known to close Na+ channels. […] After equilibration, the solution was changed to low salt with 0.09% NaCl, 0.2 mM CaCl2 containing 10 μM isoprenalol.

CFTR = biological target: T4, CFTR (Mus musculus, UniProt P26361); experiment: Hyaluronan export through CFTR in a mouse fibroblasts cell line; type: cell-based
T4 construct: endogenous in cells
Description: as §1

T1 sequence (P13569 with tags, fused parts or gaps DEL508-508): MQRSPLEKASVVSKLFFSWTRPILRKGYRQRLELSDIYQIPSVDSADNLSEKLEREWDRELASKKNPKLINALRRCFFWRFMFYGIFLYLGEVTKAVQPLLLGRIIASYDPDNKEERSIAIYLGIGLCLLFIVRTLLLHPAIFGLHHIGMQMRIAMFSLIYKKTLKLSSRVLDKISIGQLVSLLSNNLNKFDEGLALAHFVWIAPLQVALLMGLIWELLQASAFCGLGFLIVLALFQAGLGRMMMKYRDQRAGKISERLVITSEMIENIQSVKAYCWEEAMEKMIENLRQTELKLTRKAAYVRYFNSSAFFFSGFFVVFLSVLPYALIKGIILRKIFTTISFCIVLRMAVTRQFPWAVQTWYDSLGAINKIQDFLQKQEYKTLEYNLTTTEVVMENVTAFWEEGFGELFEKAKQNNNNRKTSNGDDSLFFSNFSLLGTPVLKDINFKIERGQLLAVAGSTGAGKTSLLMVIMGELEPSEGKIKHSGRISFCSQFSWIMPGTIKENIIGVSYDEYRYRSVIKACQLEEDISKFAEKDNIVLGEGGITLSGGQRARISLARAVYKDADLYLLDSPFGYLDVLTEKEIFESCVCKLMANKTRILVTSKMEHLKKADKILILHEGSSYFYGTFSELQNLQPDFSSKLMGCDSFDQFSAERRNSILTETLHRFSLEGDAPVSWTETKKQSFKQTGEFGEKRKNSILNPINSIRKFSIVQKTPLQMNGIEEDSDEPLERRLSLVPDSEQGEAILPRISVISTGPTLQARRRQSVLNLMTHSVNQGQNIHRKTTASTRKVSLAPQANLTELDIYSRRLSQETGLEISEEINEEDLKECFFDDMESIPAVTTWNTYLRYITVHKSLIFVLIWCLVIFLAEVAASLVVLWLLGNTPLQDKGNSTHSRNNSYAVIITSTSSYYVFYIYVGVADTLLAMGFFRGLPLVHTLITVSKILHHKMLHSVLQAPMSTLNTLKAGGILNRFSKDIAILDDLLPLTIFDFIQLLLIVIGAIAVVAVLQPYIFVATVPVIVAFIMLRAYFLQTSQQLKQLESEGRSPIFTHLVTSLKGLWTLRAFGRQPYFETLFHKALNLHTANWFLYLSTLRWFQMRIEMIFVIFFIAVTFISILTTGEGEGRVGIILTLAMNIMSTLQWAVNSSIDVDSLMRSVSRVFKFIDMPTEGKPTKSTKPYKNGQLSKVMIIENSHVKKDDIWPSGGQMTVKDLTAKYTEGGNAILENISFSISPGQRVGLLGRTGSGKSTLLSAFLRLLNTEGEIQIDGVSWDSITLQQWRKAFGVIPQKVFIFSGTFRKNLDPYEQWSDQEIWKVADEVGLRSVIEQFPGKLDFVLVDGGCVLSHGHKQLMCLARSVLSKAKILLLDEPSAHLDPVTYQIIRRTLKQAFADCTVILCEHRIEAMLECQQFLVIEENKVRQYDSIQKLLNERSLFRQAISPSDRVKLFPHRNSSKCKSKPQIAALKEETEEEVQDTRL
T2 sequence (O15440 whole entry): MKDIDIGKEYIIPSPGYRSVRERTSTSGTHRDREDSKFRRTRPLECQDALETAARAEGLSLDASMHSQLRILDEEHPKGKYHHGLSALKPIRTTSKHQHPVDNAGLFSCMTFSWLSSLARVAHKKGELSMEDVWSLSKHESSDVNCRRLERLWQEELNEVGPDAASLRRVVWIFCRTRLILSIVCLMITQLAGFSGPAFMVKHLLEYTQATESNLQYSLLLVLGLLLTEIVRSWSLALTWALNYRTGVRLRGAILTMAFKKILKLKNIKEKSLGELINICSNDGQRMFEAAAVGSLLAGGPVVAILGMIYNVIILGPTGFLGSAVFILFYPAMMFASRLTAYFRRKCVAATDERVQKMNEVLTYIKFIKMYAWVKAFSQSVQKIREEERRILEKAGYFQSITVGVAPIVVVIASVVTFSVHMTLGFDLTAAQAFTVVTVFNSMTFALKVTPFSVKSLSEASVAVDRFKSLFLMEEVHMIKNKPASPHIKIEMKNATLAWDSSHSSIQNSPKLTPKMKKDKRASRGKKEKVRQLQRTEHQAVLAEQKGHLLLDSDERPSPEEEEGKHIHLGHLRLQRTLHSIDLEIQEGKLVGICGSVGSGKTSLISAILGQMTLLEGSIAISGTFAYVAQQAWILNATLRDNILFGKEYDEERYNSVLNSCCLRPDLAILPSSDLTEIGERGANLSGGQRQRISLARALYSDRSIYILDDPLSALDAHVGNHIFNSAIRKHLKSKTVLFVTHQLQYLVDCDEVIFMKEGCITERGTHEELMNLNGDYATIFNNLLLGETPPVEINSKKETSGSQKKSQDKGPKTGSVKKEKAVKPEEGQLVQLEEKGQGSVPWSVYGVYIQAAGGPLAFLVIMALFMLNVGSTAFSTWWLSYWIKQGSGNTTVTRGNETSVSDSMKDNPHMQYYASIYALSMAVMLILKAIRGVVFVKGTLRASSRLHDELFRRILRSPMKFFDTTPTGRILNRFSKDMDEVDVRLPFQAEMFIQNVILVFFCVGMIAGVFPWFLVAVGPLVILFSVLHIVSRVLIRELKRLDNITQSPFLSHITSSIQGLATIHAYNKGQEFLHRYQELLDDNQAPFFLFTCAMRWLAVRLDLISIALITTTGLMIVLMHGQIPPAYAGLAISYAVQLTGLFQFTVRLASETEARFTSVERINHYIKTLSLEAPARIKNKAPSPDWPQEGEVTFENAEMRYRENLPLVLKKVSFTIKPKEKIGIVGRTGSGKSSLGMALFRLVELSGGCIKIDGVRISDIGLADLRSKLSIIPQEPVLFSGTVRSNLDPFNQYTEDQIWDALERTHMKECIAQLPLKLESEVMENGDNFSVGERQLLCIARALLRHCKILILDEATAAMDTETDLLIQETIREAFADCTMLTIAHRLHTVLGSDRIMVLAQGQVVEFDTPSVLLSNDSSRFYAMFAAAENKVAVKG
T3 sequence (P13569 whole entry): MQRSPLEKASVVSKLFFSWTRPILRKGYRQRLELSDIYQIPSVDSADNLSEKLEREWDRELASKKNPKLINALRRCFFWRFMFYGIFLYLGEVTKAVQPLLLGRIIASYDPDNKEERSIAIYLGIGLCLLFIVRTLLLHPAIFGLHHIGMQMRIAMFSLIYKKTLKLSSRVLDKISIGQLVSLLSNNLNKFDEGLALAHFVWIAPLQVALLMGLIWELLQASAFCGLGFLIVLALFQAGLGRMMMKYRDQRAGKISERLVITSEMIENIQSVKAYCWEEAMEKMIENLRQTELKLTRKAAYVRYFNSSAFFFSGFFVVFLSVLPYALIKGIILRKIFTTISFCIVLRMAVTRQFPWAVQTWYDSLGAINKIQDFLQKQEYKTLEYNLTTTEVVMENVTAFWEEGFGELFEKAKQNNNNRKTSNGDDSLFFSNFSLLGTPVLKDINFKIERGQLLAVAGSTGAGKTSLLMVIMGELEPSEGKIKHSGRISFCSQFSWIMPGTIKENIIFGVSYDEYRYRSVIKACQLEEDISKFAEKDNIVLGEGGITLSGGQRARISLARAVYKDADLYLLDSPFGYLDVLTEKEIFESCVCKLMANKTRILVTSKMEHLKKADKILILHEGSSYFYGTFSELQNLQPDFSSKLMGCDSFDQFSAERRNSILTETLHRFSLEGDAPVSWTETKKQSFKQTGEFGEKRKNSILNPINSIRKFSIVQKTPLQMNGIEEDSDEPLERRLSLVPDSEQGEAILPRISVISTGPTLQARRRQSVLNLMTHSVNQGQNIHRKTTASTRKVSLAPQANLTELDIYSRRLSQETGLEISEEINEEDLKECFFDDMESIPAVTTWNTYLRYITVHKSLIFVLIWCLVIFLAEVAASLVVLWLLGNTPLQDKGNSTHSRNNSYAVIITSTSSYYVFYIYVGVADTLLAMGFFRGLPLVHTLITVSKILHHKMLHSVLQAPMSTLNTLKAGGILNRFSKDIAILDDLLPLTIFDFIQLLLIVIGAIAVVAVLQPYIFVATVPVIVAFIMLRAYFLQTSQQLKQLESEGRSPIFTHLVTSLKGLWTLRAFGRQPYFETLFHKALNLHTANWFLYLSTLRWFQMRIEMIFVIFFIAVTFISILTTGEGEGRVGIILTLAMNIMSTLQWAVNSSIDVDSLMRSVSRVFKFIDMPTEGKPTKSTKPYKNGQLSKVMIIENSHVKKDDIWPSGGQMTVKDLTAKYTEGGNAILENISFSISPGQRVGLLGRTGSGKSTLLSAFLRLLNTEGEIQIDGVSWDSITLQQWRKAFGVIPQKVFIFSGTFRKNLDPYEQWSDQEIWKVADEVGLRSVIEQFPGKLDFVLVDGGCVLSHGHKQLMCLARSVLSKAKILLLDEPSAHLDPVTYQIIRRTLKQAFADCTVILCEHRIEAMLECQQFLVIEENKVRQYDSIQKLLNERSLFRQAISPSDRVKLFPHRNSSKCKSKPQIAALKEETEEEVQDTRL

O=C(O)c1ccc(/C=C2\SC(=S)N(c3cccc(C(F)(F)F)c3)C2=O)cc1 [CFTR172, reference compound]
effect on D4 activation of iodide efflux through F508-CFTR (ΔF508-CFTR [1]; simultaneous addition with D4): reduces the activation

CC(=O)Nc1c(O)cccc1Oc1ccccc1C(=O)O [Compound 1B, 2-(2-acetamido-3-hydroxyphenoxy)benzoic acid]
iodide efflux from ΔF508-CFTR epithelial cells (ΔF508-CFTR [1]): stimulates iodide efflux

CC(=O)Nc1c(O)cc(O)cc1Oc1ccc(N)cc1C(=O)O [Compound 1D, 2-(2-acetamido-3,5-dihydroxyphenoxy)-5-aminobenzoic acid]
activation of hyaluronan export from human fibroblasts (hyaluronan exporter MRP5): most active; also recorded: most activating | transepithelial resistance of epithelial cells containing normal CFTR, immediate effect ([2]; FIG. 10): drops immediately | TER of normal cells over a period of 90 hours ([2]; FIG. 12): reduce the TER | concentration at which increase of membrane expression on ΔF508-CFTR epithelial cells was observed (ΔF508-CFTR [3]; Western blotting): 100 µM | expression of ΔF508-CFTR on the cell surface / plasma membrane (Western blotting) (ΔF508-CFTR [3]; human epithelial cells, increasing concentration of compound): recruited to the plasma membrane; also recorded: enhanced; also recorded: restored plasma membrane expression | toxicity (Alamarblue assay) [4]: not toxic | transepithelial resistance of ΔF508-CFTR epithelial cells over a longer time period ([5]; 100 μM): increase in transepithelial resistance; also recorded: long lasting rescue of ΔF508-CFTR | transepithelial resistance of epithelial cells containing F508-CFTR ([5]; FIG. 10, compared to 8-Bromo-cAMP and control): resistance increases | TER of F508-CFTR cells over a period of 90 hours ([5]; FIG. 12, versus control without any treatment): drops below the control | expression of wildtype CFTR on the cell surface (Western blotting) (wildtype CFTR): slightly decreased | transepithelial nasal resistance (nasal epithelium; 100 μM in isotonic NaCl, 2 mM CaCl2, after a transient increase): decreased below the equilibrating solution | reversibility of the effect on transepithelial nasal resistance (nasal epithelium; wash out): reversible | hyaluronan export through CFTR (CFTR): activated | iodide efflux from ΔF508-CFTR epithelial cells (ΔF508-CFTR [1]): stimulated a sudden burst of iodide efflux | iodide efflux from ΔF508-CFTR epithelial cells (ΔF508-CFTR [1]; listed as D4): channels immediately open

N=C(N)NC(=O)c1nc(Cl)c(N)nc1N [amiloride, reference compound]
transepithelial nasal resistance (nasal epithelium; 10 μM in isotonic NaCl, 2 mM CaCl2): increased to a maximal valued

CC(C)NCC(O)c1ccc(O)c(O)c1 (stereo not shown) [isoprenalol, reference compound]
transepithelial nasal resistance (nasal epithelium; 10 μM in low salt 0.09% NaCl, 0.2 mM CaCl2): maximal drop of the transepithelial resistance
